Patent US20020098210A1, “FORMULATIONS AND METHODS FOR REDUCING SKIN IRRITATION” (priority 1997, published 2002)
Read-outs that look alike come from different tables or passages of the source.

How the values were obtained:
[1] = tested on: skin irritation induced by topical irritants (lactic acid, glycolic acid, capryloyl salicylic acid, benzoyl peroxide); assay: Human clinical trials of anti-irritant activity (general statements); assay type: in vivo; conditions: topical application
Procedure: The objective of the clinical trials was to determine whether and to what extent topical formulations of the calcium cation reduced or prevented skin irritation caused by certain severe skin irritants, including particularly lactic acid and glycolic acid (which are hydroxy acids), capryloyl salicylic acid (a β-hydroxy acid ester) and capsaicin (an isolate from cayenne and paprika known for its skin-irritating properties). The trials were conducted in a double blind, randomized, vehicle-controlled manner. Various formulations of the invention were tested in over 460 people.

[2] = tested on: lactic acid skin irritation; assay: Lactic acid irritation trial, pretreatment test (anti-irritant applied 15 minutes prior to irritant); assay type: in vivo, human; conditions: for Percent Inhibition (average inhibition of cumulative irritation) / Percent Inhibition: pretreatment tests; for Percent Inhibition (average inhibition of cumulative irritation): cation salt 250 mM, lactic acid irritant, average over trials; for Percent Inhibition: representative panels, 250 mM, vehicle Visible Difference; for inhibition of skin irritation (in words): salts in Elizabeth Arden Visible Difference Refining Toner, various amounts
Text: (§1) The following scaled scores were used for sensory assessment: […]

[3] = tested on: lactic acid skin irritation; assay: Lactic acid irritation trial, time zero test (anti-irritant applied simultaneously with irritant); assay type: in vivo, human; conditions: time zero tests; for Percent Inhibition (average inhibition of cumulative irritation): cation salt 250 mM, lactic acid irritant, average over trials; for Percent Inhibition: representative panels, 250 mM, vehicle 10% EtOH
Text: as §1

[4] = tested on: lactic acid skin irritation
Procedure: Tests were conducted in multiple panels of from 7 to 12 subjects each. Subjects were instructed not to wear any makeup or facial lotions to the clinic the day of testing. The subjects were instructed to wash their face with Ivory bar soap in the clinic prior to application of test solutions.
Lactic acid skin-irritant compositions were formulated in an appropriate vehicle prior to application to the skin of the subjects.
Controls were performed by applying corresponding formulation(s) (pretreatment and/or skin-irritant composition) with an equimolar amount of sodium chloride to a contralateral portion of the subject's skin. Typically, the test materials were applied to the face of the subject.
All test solutions (including controls) were applied in a double blind, randomized fashion using the prepared solutions as previously placed in coded vial designated for use on either the right or left side of the face (or other test area). Solutions were typically applied using a cotton swab (six strokes) or sponge applicator to the face and cheek area extending from the midline of the nose over to the center of the cheek and from the cheek bone down to the jaw line. Application was made first to the right side and then to the left.
Sensory assessment scores were recorded for each treated side of the subject's skin every minute for 15 minutes or until three consecutive scores of “zero” irritation were obtained. The following scaled scores were used for sensory assessment:
Symptom scores were cumulated, separately for the cation-treated and control-treated areas, for each individual and also for the panel as a whole. Individuals not reporting a cumulative score of at least “7” on at least one treatment area were excluded (in a blinded fashion) from further analysis in order to ascertain anti-irritant efficacy with respect to the more severely-susceptible test subjects. From a practical standpoint, scores of “0” and “1” on the above scale would be considered highly desirable for a commercial product because such a response would likely not result in a consumer ceasing to use a product.

Compound | anti-irritant activity (in words) [1] | Percent Inhibition (average inhibition of cumulative irritation) [2] [%] | Percent Inhibition [2] [%] | inhibition of skin irritation (in words) [2] | Percent Inhibition (average inhibition of cumulative irritation) [3] [%] | Percent Inhibition [3] [%] | Percent Inhibition (cumulative irritation inhibition) ([4]; calcium nitrate 31 mM) [%] | Percent Inhibition (cumulative irritation inhibition) ([4]; calcium nitrate 62 mM) [%] | Percent Inhibition (cumulative irritation inhibition) ([4]; calcium nitrate 125 mM) [%] | Percent Inhibition (cumulative irritation inhibition) ([4]; calcium nitrate 250 mM) [%] | Percent Inhibition (cumulative irritation inhibition) ([4]; calcium nitrate 500 mM) [%] | anti-irritant activity (in words) ([1]; listed as calcium(II) (Ca^2+))
CC(=O)[O-].CC(=O)[O-].[Ca+2] [Calcium acetate] | particularly active as anti-irritants | 40 | 30 | effective to inhibit skin irritation | 60 | 65 | – | – | – | – | – | –
[Ca+2].[Cl-].[Cl-] [Calcium chloride] | particularly active as anti-irritants | 35 | 35 | effective to inhibit skin irritation | 65 | 61 | – | – | – | – | – | –
O=[N+]([O-])[O-].O=[N+]([O-])[O-].[Ca+2] [Calcium nitrate] | particularly active as anti-irritants | 45 | 44 | effective to inhibit skin irritation | 90 | 85 | 26 | 52 | 83 | 82 | 67 | –
[Ca+2] [calcium cation, calcium(II)] | significant and reproducible anti-irritant effects | – | – | – | – | – | – | – | – | – | – | effective
Calcium gluconate | particularly active as anti-irritants | – | 40 | – | 40 | 49 | – | – | – | – | – | –
